Consider six compounds from ChEMBL document CHEMBL1629679, “Extended-spectrum cephalosporinases in Pseudomonas aeruginosa” (2009).

Structures are written as SMILES.

Experiment [1] concerns Pseudomonas aeruginosa. Kind of experiment: Activity at Pseudomonas aeruginosa PDC-2 by spectrophotometer.
Experiment [2] concerns Pseudomonas aeruginosa. Briefly: Activity at Pseudomonas aeruginosa PDC-3 by spectrophotometer.
In experiment [3] the test system is Pseudomonas aeruginosa. Briefly: Ratio of Kcat to Km for Pseudomonas aeruginosa PDC-2 by spectrophotometer.
The test system of experiment [4] is Pseudomonas aeruginosa. Kind of experiment: Ratio of Kcat to Km for Pseudomonas aeruginosa PDC-3 by spectrophotometer.

Broadly, the Km is the substrate concentration at which the rate is half of its maximum. Usually kcat stands for the number of substrate molecules converted per active site and unit of time at saturation. Broadly, the kcat/Km is the second-order rate constant that governs catalysis at low substrate concentration. Consider `CC1(C)S[C@@H]2[C@H](NC(=O)Cc3ccccc3)C(=O)N2[C@H]1C(=O)O`, for which the Michaelis-Menten constant (Km) in experiment [1] and in experiment [2] was 30 µM each time. The kcat in experiment [1] and in experiment [2] was 35 s⁻¹ throughout. The kcat/Km in experiment [3] and in experiment [4] was 1.2e+06 M⁻¹ s⁻¹ throughout.
In the case of `CCN1CCN(C(=O)N[C@@H](C(=O)N[C@@H]2C(=O)N3[C@@H]2SC(C)(C)[C@@H]3C(=O)O)c2ccccc2)C(=O)C1=O`, the Km in experiment [1] and in experiment [2] was 40 µM each time. Moreover, the kcat in experiment [1] is 5.5 s⁻¹; in experiment [2] it was 5 s⁻¹. For the same compound, the kcat/Km in experiment [3] is 135000 M⁻¹ s⁻¹; in experiment [4], 125000 M⁻¹ s⁻¹.
In the case of `CO/N=C(\C(=O)N[C@@H]1C(=O)N2C(C(=O)[O-])=C(C[N+]3(C)CCCC3)CS[C@H]12)c1csc(N)n1`, the Km in experiment [1] came to 850 µM; in experiment [2] it was 1300 µM. Besides, the kcat in experiment [1] and in experiment [2] was 2 s⁻¹ in each case. In addition, the kcat/Km in experiment [3] was determined as 2000 M⁻¹ s⁻¹; in experiment [4], 1500 M⁻¹ s⁻¹.
Consider `CO/N=C(\C(=O)N[C@@H]1C(=O)N2C(C(=O)O)=C(COC(C)=O)CS[C@H]12)c1csc(N)n1`, for which the Km in experiment [1] turned out to be 5 µM; in experiment [2], 8 µM. For the same compound, the values for the kcat in experiment [1] and in experiment [2] were 5 s⁻¹ and 0.15 s⁻¹, respectively. In addition, the specificity constant (kcat/Km) stood at 30000 M⁻¹ s⁻¹ in experiment [3] and 20000 M⁻¹ s⁻¹ in experiment [4].
On to `C[C@@H](O)[C@H]1C(=O)N2C(C(=O)O)=C(SCCNC=N)C[C@H]12`, for which the figures for the Michaelis-Menten constant (Km) in experiment [1] and in experiment [2] were 35 µM and 20 µM, respectively. The kcat in experiment [1] turned out to be 0.2 s⁻¹; in experiment [2] it was 0.1 s⁻¹. The kcat/Km in experiment [3] and in experiment [4] was 5000 M⁻¹ s⁻¹ in each case.
`CC(C)(O/N=C(\C(=O)N[C@@H]1C(=O)N2C(C(=O)[O-])=C(C[n+]3ccccc3)CS[C@H]12)c1csc(N)n1)C(=O)O`: the figures for the Km in experiment [1] and in experiment [2] were 20 µM and 35 µM, respectively. Moreover, the kcat amounted to 0.01 s⁻¹ in experiment [1] and 0.02 s⁻¹ in experiment [2]. Moreover, the kcat/Km in experiment [3] was 500 M⁻¹ s⁻¹; in experiment [4] it was 600 M⁻¹ s⁻¹.
